Test results reported in patent US11395489B2, “Microbiocidal picolinamide derivatives” (Syngenta Participations AG, priority 2017, dated 2022).

Legend:
[1] = system: Glomerella lacenarium (Colletotrichum lacenarium); experiment: Glomerella lacenarium (Colletotrichum lacenarium) / liquid culture (Anthracnose); format: cell-based; settings: 200 ppm in the formulation, inhibition of growth measured photometrically 3-4 days after application, read-out: disease control
Experimental: Glomerella lacenarium (Colletotrichum lacenarium)/Liquid Culture (Anthracnose) Conidia of the fungus from cryogenic storage are directly mixed into nutrient broth (PDB potato dextrose broth). After placing a (DMSO) solution of test compound into a microtiter plate (96-well format), the nutrient broth containing the fungal spores is added. The test plates are incubated at 24° C. and the inhibition of growth is measured photometrically 3-4 days after application.

[2] = system: Magnaporthe risea (Pyricularia Oryzae); experiment: whole plant or invertebrate; format: in vivo; settings: foliar, read-out: disease control
[3] = system: Monocraphella nivalis (Microdochium nivale); experiment: Monocraphella nivalis (Microdochium nivale) / liquid culture (Foot Rot Cereals); format: cell-based; settings: 96 h, 200 ppm in the formulation, inhibition of growth determined photometrically 4-5 days after application, read-out: disease control
Experimental: Monocraphella nivalis (Microdochium nivale)/Liquid Culture (Foot Rot Cereals) Conidia of the fungus from cryogenic storage are directly mixed into nutrient broth (PDB potato dextrose broth). After placing a (DMSO) solution of test compound into a microtiter plate (96-well format), the nutrient broth containing the fungal spores is added. The test plates are incubated at 24° C. and the inhibition of growth is determined photometrically 4-5 days after application.

[4] = system: Mycosphaerella arachidis (Cercospora arachidicola); experiment: Mycosphaerella arachidis (Cercospora arachidicola) / liquid culture (Early Leaf Spot); format: cell-based; settings: 96 h, 200 ppm in the formulation, inhibition of growth determined photometrically 4-5 days after application, read-out: disease control
Experimental: Mycosphaerella arachidis (Cercospora arachidicola)/Liquid Culture (Early Leaf Spot) Conidia of the fungus from cryogenic storage are directly mixed into nutrient broth (PDB potato dextrose broth). After placing a (DMSO) solution of test compound into a microtiter plate (96-well format), the nutrient broth containing the fungal spores is added. The test plates are incubated at 24° C. and the inhibition of growth is determined photometrically 4-5 days after application.

[5] = system: Mycosphaerella Raminicola (Septoria tritici); experiment: Mycosphaerella Raminicola (Septoria tritici) / liquid culture (Septoria Blotch); format: cell-based; settings: 200 ppm in the formulation, inhibition of growth determined photometrically 4 to 5 days after application, read-out: disease control
Experimental: Mycosphaerella Raminicola (Septoria tritici)/Liquid Culture (Septoria Blotch) Conidia of the fungus from cryogenic storage are directly mixed into nutrient broth (PDB potato dextrose broth). After placing a (DMSO) solution of test compound into a microtiter plate (96-well format), the nutrient broth containing the fungal spores is added. The test plates are incubated at 24° C. and the inhibition of growth is determined photometrically 4 to 5 days after application.

[6] = system: Phaeosphaeria Nodorum (Septoria nodorum); experiment: Phaeosphaeria nodorum (Septoria nodorum) / wheat / leaf disc preventative (Glume Blotch); format: in vivo; settings: Parastagonospora nodorum, foliar, 200 ppm in the formulation, compared to untreated, 5-7 days after application, read-out: disease control
Experimental: Phaeosphaeria Nodorum (Septoria nodorum)/Wheat/Leaf Disc Preventative (Glume Blotch) Wheat leaf segments cv. Kanzler are placed on agar in a multiwell plate (24-well format) and sprayed with the formulated test compound diluted in water. The leaf disks are inoculated with a spore suspension of the fungus 2 days after application. The inoculated test leaf disks are incubated at 20° C. and 75% rh under a light regime of 12 h light/12 h darkness in a climate cabinet and the activity of a compound is assessed as percent disease control compared to untreated when an appropriate level of disease damage appears in untreated check leaf disks (5-7 days after application).

[7] = system: Puccinia recondita f. Sp. Tritici; experiment: Puccinia recondita f. sp. tritici / wheat / leaf disc preventative (Brown Rust); format: in vivo; settings: foliar, 168 h, 200 ppm in the formulation, compared to untreated, 7-9 days after application, read-out: disease control
[8] = system: Botryotinia fuckeliana (Botrytis cinerea); experiment: Botryotinia fuckeliana (Botrytis cinerea) / liquid culture (Gray Mould); format: cell-based; settings: 72 h, 200 ppm in the formulation, inhibition of growth determined photometrically 3-4 days after application, read-out: disease control
Experimental: Botryotinia fuckeliana (Botrytis cinerea)/Liquid Culture (Gray Mould) Conidia of the fungus from cryogenic storage are directly mixed into nutrient broth (Vogels broth). After placing a (DMSO) solution of test compound into a microtiter plate (96-well format), the nutrient broth containing the fungal spores is added. The test plates are incubated at 24° C. and the inhibition of growth is determined photometrically 3-4 days after application.

COc1ccnc(C(=O)N[C@@H](C)C(=O)OC(C)C(C)(C)c2cc(F)ccc2F)c1O (stereo partly drawn) [I.ah.001, [2-(2,5-difluoro-phenyl)-1,2-dimethyl-propyl] (2S)-2-[(3-hydroxy-4-methoxy-pyridine-2-carbonyl)-amino]propanoate]
≥ 80%: inhibition of growth at 200 ppm [1] | pest or weed control at 200 ppm [2] | inhibition of growth at 200 ppm [3] | inhibition of growth at 200 ppm [4] | inhibition of growth at 200 ppm [5] | pest or weed control at 200 ppm [6] | pest or weed control at 200 ppm [7]

COc1ccnc(C(=O)N[C@@H](C)C(=O)OC(C)C2(c3cccc4ccccc34)CC2)c1OC(C)=O (stereo partly drawn) [I.v.066, 1-[1-(1-naphthyl)cyclo-propyl]ethyl (2S)-2-[(3-acetoxy-4-methoxy-pyridine-2-carbonyl)-amino]propanoate]
≥ 80%: inhibition of growth at 200 ppm [8] | inhibition of growth at 200 ppm [1] | pest or weed control at 200 ppm [2] | inhibition of growth at 200 ppm [3] | inhibition of growth at 200 ppm [4] | inhibition of growth at 200 ppm [5] | pest or weed control at 200 ppm [6] | pest or weed control at 200 ppm [7]

COc1ccnc(C(=O)N[C@@H](C)C(=O)OC(C)C2(c3ccc(Cl)cc3)CCC2)c1O (stereo partly drawn) [I.k.012, 1-[1-(4-chlorophenyl)-cyclobutyl]ethyl (2S)-2-((3-hydroxy-4-methoxy-pyridine-2-carbonyl)-amino]propanoate]
≥ 80%: inhibition of growth at 200 ppm [8] | inhibition of growth at 200 ppm [1] | pest or weed control at 200 ppm [2] | inhibition of growth at 200 ppm [3] | inhibition of growth at 200 ppm [4] | inhibition of growth at 200 ppm [5] | pest or weed control at 200 ppm [6] | pest or weed control at 200 ppm [7]

COc1ccnc(C(=O)N[C@@H](C)C(=O)OC(C)C2(c3ccccc3)CC2c2ccccc2)c1O (stereo partly drawn) [I.a.010, 1-(1,2-diphenylcyclo-propyl)ethyl (2S)-2-[(3-hydroxy-4-methoxy-pyridine-2-carbonyl)-amino]propanoate]
≥ 80%: inhibition of growth at 200 ppm [8] | inhibition of growth at 200 ppm [1] | pest or weed control at 200 ppm [2] | inhibition of growth at 200 ppm [3] | inhibition of growth at 200 ppm [4] | inhibition of growth at 200 ppm [5] | pest or weed control at 200 ppm [6] | pest or weed control at 200 ppm [7]
